The values below come from patent US4120864A, “1,2,4-4H-triazole derivatives” (Rohm and Haas Company, priority 1972, dated 1978).

Structures can show the parent of a compound that is named as a salt. Where two headings read alike, the source gives them in different places.

Common to all, as to assay type: in vivo
In assay [1] the test system is wheat leaf rust, Puccinia recondita. In words: whole plant or invertebrate. As to conditions: foliar; for pest or weed control at 280.212 g/ha: read-out: % Control (with 1" of rain), foliar, 0.25 lb., 1" of rain; for pest or weed control at 1120.85 g/ha: read-out: % Control (with 1" of rain), foliar, 1 lb., 1" of rain.
For assay [2] the test system is unchanged.
Assay [3] has the same test system. Briefly: whole plant or invertebrate. As to conditions: foliar; for pest or weed control at 280.212 g/ha: read-out: % Control (without rain), foliar, 0.25 lb.; for pest or weed control at 1120.85 g/ha: read-out: % Control (without rain), foliar, 1 lb.
Assay [4] shares this test system. Briefly: Foliar systemic activity on leaf rust. An excerpt:
Another type of systemic test was run in which pots of approximately 5 inch high wheat plants were sprayed with varying concentrations of the test compound. Thirty-six hours later they were sprayed six minutes in a rain machine which amounted to about one inch of normal rainfall. The plants were then placed in a greenhouse for 7 days and then inoculated with a spore suspension of wheat leaf rust, Puccinia recondita. About 7 days later lesion counts were made on ten leaves representing the sprayed leaves and new growth from each replicate and compared with similar pots of wheat plants which were untreated with a chemical and the percent disease control determined. Disease control on the new growth is a measure of systemic activity. The commercial product known by the trademarked name Plantvax, which is 2,3-dihydro-5-carboxanilido-6-methyl-1,4-oxathiin-4,4-dioxide, was used as a standard.

Take `CCCn1cnnc1` [Example 1, 4-n-propyl-1,2,4-triazole]: the results for the pest or weed control at 280.212 g/ha in assay [1] and in assay [3] were 87% and 100%, respectively. For the same compound, the pest or weed control at 1120.85 g/ha in assay [1] and in assay [3] was 100% each time. Moreover, the results for the “% Systemic Wheat Leaf Rust Control” value in assay [2] (2.5 ppm in soil) and in assay [2] (5 ppm in soil) were 99% and 100%, respectively.
For `CC(C)Cn1cnnc1` [Example 4, 4-isobutyl-1,2,4-triazole], in assay [1], the pest or weed control at 280.212 g/ha was 30% and the pest or weed control at 1120.85 g/ha is 60%. For the same compound, in assay [2] (20 ppm in soil), the “% Systemic Wheat Leaf Rust Control” value was 100%. In assay [3], the pest or weed control at 280.212 g/ha amounted to 95% and the pest or weed control at 1120.85 g/ha came out at 95%.
For the compound `CC(C)CCn1cnnc1` [Example 8, 4-isopentyl-1,2,4-triazole], in assay [1], the pest or weed control at 280.212 g/ha came out at 98% and the pest or weed control at 1120.85 g/ha worked out at 100%. In addition, the “% Systemic Wheat Leaf Rust Control” value in assay [2] (20 ppm in soil) is given as 100%. Also, in assay [3], the pest or weed control at 280.212 g/ha was determined as 98% and the pest or weed control at 1120.85 g/ha stood at 99%.
With `CCCCCCn1cnnc1` [Example 9, 4-n-hexyl-1,2,4-triazole], the pest or weed control at 280.212 g/ha in assay [1] and in assay [3] was 100% in each case. The pest or weed control at 1120.85 g/ha in assay [1] and in assay [3] was 100% each time. The figures for the “% Systemic Wheat Leaf Rust Control” value in assay [2] (2.5 ppm in soil) and in assay [2] (5 ppm in soil) were 77% and 92%, respectively.
With `COCCCn1cnnc1` [Example 46, 4-(3-methoxypropyl)-1,2,4-triazole], the pest or weed control at 280.212 g/ha in assay [1] was 99%; in assay [3], 100%. Moreover, the pest or weed control at 1120.85 g/ha in assay [1] and in assay [3] was 100% in each case. The “% Systemic Wheat Leaf Rust Control” value worked out at 96% in assay [2] (2.5 ppm in soil) and 99% in assay [2] (5 ppm in soil).
As for `Clc1ccc(-n2cnnc2)cc1Cl` [Example 57, 4-(3,4-dichlorophenyl)-1,2,4-triazole], the figures for the pest or weed control at 280.212 g/ha in assay [1] and in assay [3] were 40% and 80%, respectively. In addition, the pest or weed control at 1120.85 g/ha in assay [1] turned out to be 60%; in assay [3] it was 90%. The “% Systemic Wheat Leaf Rust Control” value in assay [2] (2.5 ppm in soil) is 54%; in assay [2] (10 ppm in soil) it was 68%.
For `Clc1ccc(-n2cnnc2)nc1` [Example 63, 4-(5-chloro-2-pyridyl)-1,2,4-triazole], the results for the pest or weed control at 280.212 g/ha in assay [1] and in assay [3] were 45% and 90%, respectively. For the same compound, the pest or weed control at 1120.85 g/ha in assay [1] stood at 85%; in assay [3], 95%. The “% Systemic Wheat Leaf Rust Control” value in assay [2] (20 ppm in soil) is reported as 95%.
For `CCCn1cnnc1S` [Example 75, 3-mercapto-4-n-propyl-1,2,4-triazole], the pest or weed control at 280.212 g/ha is 100% in assay [1] and 91% in assay [3]. The pest or weed control at 1120.85 g/ha was determined as 99% in assay [1] and 100% in assay [3]. Further, the “% Systemic Wheat Leaf Rust Control” value in assay [2] (2.5 ppm in soil) stood at 40%; in assay [2] (5 ppm in soil), 82%; in assay [2] (10 ppm in soil) it was 84%.
Turning to `CCCCn1c(S)nnc1C(=O)OCC` [Example 98, sodium salt of 3-mercapto-4-butyl-5-ethoxycarbonyl-1,2,4-triazole], the “% Control (with 1" of rain)” value in assay [1] (0.25 lb.) and in assay [1] (1 lb.) was 100% each time. In addition, the “% Systemic Wheat Leaf Rust Control” value was found to be 85% in assay [2] (2.5 ppm in soil), 97% in assay [2] (5 ppm in soil) and 99% in assay [2] (10 ppm in soil). Further, the entries for the “% Control (without rain)” value in assay [3] (0.25 lb.) and in assay [3] (1 lb.) were 86% and 100%, respectively.
In the case of `CCCCn1c(SC(=S)N(C)C)nnc1C(=O)O` [Example 101, 3-dimethylthiocarbamoylmercapto-4-n-butyl-5-carboxy-1,2,4-triazole], the pest or weed control at 280.212 g/ha in assay [1] and in assay [3] was 100% throughout. For the same compound, the pest or weed control at 1120.85 g/ha in assay [1] and in assay [3] was 100% each time. Besides, the results for the “% Systemic Wheat Leaf Rust Control” value in assay [2] (2.5 ppm in soil), in assay [2] (5 ppm in soil) and in assay [2] (10 ppm in soil) were 88%, 96% and 100%, respectively.
Consider `C=CCOCCSc1nncn1CCCC` [Example 108, 3-(2-allyloxyethylmercapto)-4-n-butyl-1,2,4-triazole], for which, in assay [1], the pest or weed control at 280.212 g/ha was determined as 25% and the pest or weed control at 1120.85 g/ha came out at 40%. In assay [3], the pest or weed control at 280.212 g/ha was found to be 35% and the pest or weed control at 1120.85 g/ha was determined as 85%.
On the same counts, the results for `CCCCn1cnnc1SCCOc1ccccc1` [Example 109, 3-(2-phenoxyethylmercapto)-4-n-butyl-1,2,4-triazole] are 96%, 100%, 100% and 100%.
Taken in the same sequence, the figures for `CCCCn1cnnc1SC(C)=O` [Example 115, 3-acetylmercapto-4-n-butyl-1,2,4-triazole] were 90%, 95%, 99% and 100%.
In the case of `CCCCn1cnnc1SC(=O)COC` [Example 116, 3-methoxyacetylmercapto-4-n-butyl-1,2,4-triazole], in assay [1], the pest or weed control at 280.212 g/ha was 95% and the pest or weed control at 1120.85 g/ha was 99%. In assay [3], the pest or weed control at 280.212 g/ha was found to be 100% and the pest or weed control at 1120.85 g/ha was 100%.
Take `CCCCn1cnnc1SC(=O)CCC` [Example 117, 3-butyrylmercapto-4-n-butyl-1,2,4-triazole]: the pest or weed control at 280.212 g/ha in assay [1] amounted to 95%; in assay [3], 100%. Besides, the pest or weed control at 1120.85 g/ha in assay [1] is 99%; in assay [3], 100%.
As for `CCCCn1cnnc1SC(=O)c1ccccc1Br` [Example 118, 3-(2-bromobenzoylmercapto)-4-n-butyl-1,2,4-triazole], in assay [1], the pest or weed control at 280.212 g/ha turned out to be 100% and the pest or weed control at 1120.85 g/ha amounted to 100%. Also, in assay [3], the pest or weed control at 280.212 g/ha is 100% and the pest or weed control at 1120.85 g/ha amounted to 100%.
Take `CCCCn1cnnc1SC(=O)c1ccc(Br)cc1` [Example 119, 3-(4-bromobenzoylmercapto)-4-n-butyl-1,2,4-triazole]: in assay [1], the pest or weed control at 280.212 g/ha was determined as 100% and the pest or weed control at 1120.85 g/ha came to 100%. For the same compound, in assay [3], the pest or weed control at 280.212 g/ha is 100% and the pest or weed control at 1120.85 g/ha stood at 100%.
Regarding `CCCCn1cnnc1SC(=O)c1cc(Cl)cc(Cl)c1` [Example 120, 3-(3,5-dichlorobenzoylmercapto)-4-n-butyl-1,2,4-triazole], in assay [1], the pest or weed control at 280.212 g/ha stood at 98% and the pest or weed control at 1120.85 g/ha amounted to 98%. In addition, in assay [3], the pest or weed control at 280.212 g/ha was 100% and the pest or weed control at 1120.85 g/ha was 100%.
Take `CCCCn1cnnc1SC(=O)c1cccc([N+](=O)[O-])c1` [Example 122, 3-(3-nitrobenzoylmercapto)-4-n-butyl-1,2,4-triazole]: in assay [1], the pest or weed control at 280.212 g/ha turned out to be 100% and the pest or weed control at 1120.85 g/ha was determined as 100%. In assay [3], the pest or weed control at 280.212 g/ha stood at 100% and the pest or weed control at 1120.85 g/ha was 100%.
Turning to `CCCCn1cnnc1SC(=O)c1cc(OC)c(OC)c(OC)c1` [Example 123, 3-(3,4,5-trimethoxybenzoylmercapto)-4-n-butyl-1,2,4-triazole], in assay [1], the pest or weed control at 280.212 g/ha came out at 90% and the pest or weed control at 1120.85 g/ha worked out at 98%. Also, in assay [3], the pest or weed control at 280.212 g/ha stood at 98% and the pest or weed control at 1120.85 g/ha is 100%.
On to `N#CCCn1ncn(-c2ccccc2)c1=S` [Example 126, 2-(2-cyanoethyl)-4-phenyl-1,2,4-triazoline-3-thione], for which the results for the “% Rust Control, New growth” value in assay [4] (1/2 lb./100 gal.), in assay [4] (1/6 lb./100 gal.) and in assay [4] (1/12 lb./100 gal.) were 42%, 27% and 0%, respectively. Further, the results for the “% Rust Control, Sprayed Leaf” value in assay [4] (1/2 lb./100 gal.), in assay [4] (1/6 lb./100 gal.) and in assay [4] (1/12 lb./100 gal.) were 13%, 0% and 0%, respectively. The results for the pest or weed control at 280.212 g/ha in assay [1] and in assay [3] were 83% and 93%, respectively. Further, the pest or weed control at 1120.85 g/ha in assay [1] and in assay [3] was 96% throughout.
Regarding `O=[N+]([O-])c1ccc(Sc2nncn2-c2ccccc2)c([N+](=O)[O-])c1` [Example 128, 3-(2,4-dinitrophenylmercapto)-4-phenyl-1,2,4-triazole], the pest or weed control at 280.212 g/ha in assay [1] came to 84%; in assay [3], 100%. Besides, the pest or weed control at 1120.85 g/ha in assay [1] was found to be 90%; in assay [3], 100%.
For the compound `COc1ccc(C(=O)Sc2nncn2-c2ccccc2)cc1` [Example 129, 3-(4-methoxybenzoylmercapto)-4-phenyl-1,2,4-triazole], the pest or weed control at 280.212 g/ha in assay [1] and in assay [3] was 100% throughout. The pest or weed control at 1120.85 g/ha in assay [1] is 99%; in assay [3], 100%.
